Data on 23 compounds can be found in ChEMBL document CHEMBL1125588, “Quinazoline antifolate thymidylate synthase inhibitors: bridge modifications and conformationally restricted analogues in the C2-methyl series” (J Med Chem, 1991).

Structures are written as SMILES. pIC50: −log10 of the molar value.

For the first assay, the system named is L1210. Put plainly: Compound was tested for the concentration to inhibit 50% of L1210:1565 cell growth. Type of assay: functional, cell-based. The following applies: Mus musculus.
With `Cc1nc2ccc(CN(C)c3ccc(C(=O)N[C@@H](CCC(=O)O)C(=O)O)cc3)cc2c(=O)[nH]1`, the pIC50 (as a rule, the IC50 on a negative log10 scale, so that one unit is a factor of ten) is 5.38.

With `Cc1nc(=O)c2cc(CN(C)c3ccc(C(=O)N[C@@H](CCC(=O)O)C(=O)O)s3)ccc2[nH]1` [RALTITREXED], the pIC50 is 6.02.

In the case of `Cc1nc(O)c2cc(N(C)Cc3ccc(C(=O)N[C@@H](CCC(=O)O)C(=O)O)cc3)ccc2n1`, the pIC50 was 5.11.

`Cc1nc(O)c2cc(N(C)Cc3ccc(C(=O)N[C@@H](CCC(=O)O)C(=O)O)s3)ccc2n1` gave a pIC50 of 5.68.

In another assay the test system is L1210. Put plainly: Tested for the concentration to inhibit 50% of L1210 cell growth in culture. Type of assay: functional, cell-based. The following applies: Mus musculus.
On to `Cc1nc(O)c2cc(N(CCF)Cc3ccc(C(=O)N[C@@H](CCC(=O)O)C(=O)O)s3)ccc2n1`, for which the pIC50 was 6.42.

Regarding `Cc1nc(O)c2cc(NCc3ccc(C(=O)N[C@@H](CCC(=O)O)C(=O)O)cn3)ccc2n1`, the pIC50 was 7.22.

In the case of `Cc1nc(O)c2cc(NC(C)c3ccc(C(=O)N[C@@H](CCC(=O)O)C(=O)O)cc3)ccc2n1` (stereo not given in full), the pIC50 is 6.10.

As for `Cc1nc(O)c2cc(NCc3ccc(C(=O)N[C@@H](CCC(=O)O)C(=O)O)s3)ccc2n1`, the pIC50 was 7.59.

With `Cc1nc(O)c2cc(CN(C)c3ccc4c(c3)CN([C@@H](CCC(=O)O)C(=O)O)C4=O)ccc2n1`, the pIC50 is 5.89.

Compound `Cc1nc(O)c2cc(NCc3ccc(C(=O)N[C@@H](CCC(=O)O)C(=O)O)cc3F)ccc2n1` had a pIC50 of 7.28.

For `C#CCN(Cc1ccc(C(=O)N[C@@H](CCC(=O)O)C(=O)O)cc1)c1ccc2nc(C)nc(O)c2c1`, the pIC50 was 5.62.

`Cc1nc(O)c2cc(COc3ccc(C(=O)N[C@@H](CCC(=O)O)C(=O)O)cc3)ccc2n1` showed a pIC50 of 7.40.

`Cc1nc(=O)c2cc(CN(C)c3ccc(C(=O)N[C@@H](CCC(=O)O)C(=O)O)s3)ccc2[nH]1` [RALTITREXED] showed a pIC50 of 8.15.

On to `Cc1nc(O)c2cc(CSc3ccc(C(=O)N[C@@H](CCC(=O)O)C(=O)O)cc3)ccc2n1`, for which the pIC50 is 6.38.

`Cc1nc(O)c2cc(N(C)C(C)c3ccc(C(=O)N[C@@H](CCC(=O)O)C(=O)O)cc3)ccc2n1` (stereo not given in full) had a pIC50 of 6.46.

For `Cc1nc(O)c2cc(Cn3ccc4cc(C(=O)N[C@@H](CCC(=O)O)C(=O)O)ccc43)ccc2n1`, the pIC50 is 7.44.

`C=CCN(Cc1ccc(C(=O)N[C@@H](CCC(=O)O)C(=O)O)s1)c1ccc2nc(C)nc(O)c2c1` gave a pIC50 of 6.27.

Compound `Cc1nc(O)c2cc(N(C)Cc3ccc(C(=O)N[C@@H](CCC(=O)O)C(=O)O)cc3)ccc2n1` showed a pIC50 of 6.15.

`Cc1nc(O)c2cc(N(C)Cc3ccc(C(=O)N[C@@H](CCC(=O)O)C(=O)O)s3)ccc2n1`: the pIC50 is 6.52.

The compound `CCN(Cc1ccc(C(=O)N[C@@H](CCC(=O)O)C(=O)O)s1)c1ccc2nc(C)nc(O)c2c1` gave a pIC50 of 6.18.

Compound `Cc1nc(O)c2cc(Sc3ccc(C(=O)N[C@@H](CCC(=O)O)C(=O)O)cc3)ccc2n1` had a pIC50 of under 4.70.

`C#CCN(Cc1ccc2nc(C)nc(O)c2c1)c1ccc2c(c1)CN([C@@H](CCC(=O)O)C(=O)O)C2=O` showed a pIC50 of 6.77.

`Cc1nc(O)c2cc(NCc3ccc(C(=O)N[C@@H](CCC(=O)O)C(=O)O)cc3)ccc2n1` had a pIC50 of 7.15.

As to `Cc1nc2ccc(CNc3ccc(C(=O)N[C@@H](CCC(=O)O)C(=O)O)s3)cc2c(=O)[nH]1`, the pIC50 was 5.52.

As for `Cc1nc(O)c2cc(N(CCO)Cc3ccc(C(=O)N[C@@H](CCC(=O)O)C(=O)O)s3)ccc2n1`, the pIC50 was 5.21.

On to `Cc1nc(O)c2cc(CNc3ccc4c(c3)CN([C@@H](CCC(=O)O)C(=O)O)C4=O)ccc2n1`, for which the pIC50 is 5.52.

For a further assay, the system named is L1210. Put plainly: Tested for inhibition of L1210 cell growth in presence of dThd and expressed as % of control. Type of assay: functional, Mus musculus. Also noted: concentration or dose not given beside the values.
Details: not given
For `Cc1nc(O)c2cc(N(CCF)Cc3ccc(C(=O)N[C@@H](CCC(=O)O)C(=O)O)s3)ccc2n1`, the Control is on record as 95%.

Regarding `Cc1nc(O)c2cc(NC(C)c3ccc(C(=O)N[C@@H](CCC(=O)O)C(=O)O)cc3)ccc2n1` (stereo not given in full), the Control was determined as 93%.

Regarding `Cc1nc(O)c2cc(NCc3ccc(C(=O)N[C@@H](CCC(=O)O)C(=O)O)s3)ccc2n1`, the Control came to 88%.

As for `Cc1nc(O)c2cc(CN(C)c3ccc4c(c3)CN([C@@H](CCC(=O)O)C(=O)O)C4=O)ccc2n1`, the Control is on record as 90%.

For `Cc1nc(O)c2cc(NCc3ccc(C(=O)N[C@@H](CCC(=O)O)C(=O)O)cc3F)ccc2n1`, the Control is listed as 94%.

As for `C#CCN(Cc1ccc(C(=O)N[C@@H](CCC(=O)O)C(=O)O)cc1)c1ccc2nc(C)nc(O)c2c1`, the Control is recorded as 89%.

For the compound `Cc1nc(O)c2cc(COc3ccc(C(=O)N[C@@H](CCC(=O)O)C(=O)O)cc3)ccc2n1`, the Control worked out at 75%.

As for `Cc1nc(O)c2cc(CSc3ccc(C(=O)N[C@@H](CCC(=O)O)C(=O)O)cc3)ccc2n1`, the Control was 99%.

In the case of `Cc1nc(O)c2cc(Cn3ccc4cc(C(=O)N[C@@H](CCC(=O)O)C(=O)O)ccc43)ccc2n1`, the Control is on record as 90%.

In the case of `C=CCN(Cc1ccc(C(=O)N[C@@H](CCC(=O)O)C(=O)O)s1)c1ccc2nc(C)nc(O)c2c1`, the Control turned out to be 95%.

As to `Cc1nc(O)c2cc(N(C)Cc3ccc(C(=O)N[C@@H](CCC(=O)O)C(=O)O)cc3)ccc2n1`, the Control came out at 93%.

In the case of `CCN(Cc1ccc(C(=O)N[C@@H](CCC(=O)O)C(=O)O)s1)c1ccc2nc(C)nc(O)c2c1`, the Control worked out at 94%.

As to `C#CCN(Cc1ccc2nc(C)nc(O)c2c1)c1ccc2c(c1)CN([C@@H](CCC(=O)O)C(=O)O)C2=O`, the Control is given as 96%.

For `Cc1nc(O)c2cc(NCc3ccc(C(=O)N[C@@H](CCC(=O)O)C(=O)O)cc3)ccc2n1`, the Control stood at 93%.

Turning to `Cc1nc(O)c2cc(N(CCO)Cc3ccc(C(=O)N[C@@H](CCC(=O)O)C(=O)O)s3)ccc2n1`, the Control came to 91%.

In a further assay the target is Thymidylate synthase (Mus musculus, UniProt P07607). Put plainly: In vitro inhibition against L1210 thymidylate synthase (TS).
Sequence of Thymidylate synthase (P07607 whole entry): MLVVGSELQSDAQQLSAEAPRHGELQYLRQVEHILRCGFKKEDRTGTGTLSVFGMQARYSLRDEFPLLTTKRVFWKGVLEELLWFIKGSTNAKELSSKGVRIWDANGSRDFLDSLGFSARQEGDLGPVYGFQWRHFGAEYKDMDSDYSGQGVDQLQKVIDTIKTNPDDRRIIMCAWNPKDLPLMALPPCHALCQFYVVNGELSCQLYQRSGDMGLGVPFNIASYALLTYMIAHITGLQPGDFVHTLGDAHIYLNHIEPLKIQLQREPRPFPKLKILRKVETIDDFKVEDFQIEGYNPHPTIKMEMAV
Details: not given
As for `Cc1nc(O)c2cc(N(CCF)Cc3ccc(C(=O)N[C@@H](CCC(=O)O)C(=O)O)s3)ccc2n1`, the pIC50 was 5.00.

Regarding `Cc1nc(O)c2cc(NCc3ccc(C(=O)N[C@@H](CCC(=O)O)C(=O)O)cn3)ccc2n1`, the pIC50 was 4.78.

In the case of `Cc1nc(O)c2cc(NC(C)c3ccc(C(=O)N[C@@H](CCC(=O)O)C(=O)O)cc3)ccc2n1` (stereo not given in full), the negative-log IC50 (pIC50) was 5.37.

In the case of `Cc1nc(O)c2cc(NCc3ccc(C(=O)N[C@@H](CCC(=O)O)C(=O)O)s3)ccc2n1`, the pIC50 is 5.16.

In turn, `Cc1nc(O)c2cc(CN(C)c3ccc4c(c3)CN([C@@H](CCC(=O)O)C(=O)O)C4=O)ccc2n1` had a pIC50 of 6.14.

As to `Cc1nc(O)c2cc(NCc3ccc(C(=O)N[C@@H](CCC(=O)O)C(=O)O)cc3F)ccc2n1`, the pIC50 is 5.17.

In the case of `Cc1nc(O)c2cc(COc3ccc(C(=O)N[C@@H](CCC(=O)O)C(=O)O)cc3)ccc2n1`, the pIC50 was 4.67.

As to `Cc1nc(O)c2cc(CSc3ccc(C(=O)N[C@@H](CCC(=O)O)C(=O)O)cc3)ccc2n1`, the pIC50 is 5.33.

Compound `Cc1nc(O)c2cc(N(C)C(C)c3ccc(C(=O)N[C@@H](CCC(=O)O)C(=O)O)cc3)ccc2n1` (stereo not given in full) had a pIC50 of 5.97.

Turning to `Cc1nc(O)c2cc(Cn3ccc4cc(C(=O)N[C@@H](CCC(=O)O)C(=O)O)ccc43)ccc2n1`, the pIC50 is 5.49.

With `C=CCN(Cc1ccc(C(=O)N[C@@H](CCC(=O)O)C(=O)O)s1)c1ccc2nc(C)nc(O)c2c1`, the negative logarithm of the IC50 (pIC50) is 4.85.

As to `Cc1nc(O)c2cc(N(C)Cc3ccc(C(=O)N[C@@H](CCC(=O)O)C(=O)O)cc3)ccc2n1`, the pIC50 was 5.58.

In turn, `Cc1nc(O)c2cc(N(C)Cc3ccc(C(=O)N[C@@H](CCC(=O)O)C(=O)O)s3)ccc2n1` showed a pIC50 of 5.42.

In turn, `CCN(Cc1ccc(C(=O)N[C@@H](CCC(=O)O)C(=O)O)s1)c1ccc2nc(C)nc(O)c2c1` had a pIC50 of 5.07.

In turn, `Cc1nc(O)c2cc(Sc3ccc(C(=O)N[C@@H](CCC(=O)O)C(=O)O)cc3)ccc2n1` showed a pIC50 of 4.99.

Consider `C#CCN(Cc1ccc2nc(C)nc(O)c2c1)c1ccc2c(c1)CN([C@@H](CCC(=O)O)C(=O)O)C2=O`, for which the pIC50 was 6.82.

Consider `Cc1nc(O)c2cc(NCc3ccc(C(=O)N[C@@H](CCC(=O)O)C(=O)O)cc3)ccc2n1`, for which the pIC50 was 5.08.

`Cc1nc2ccc(CNc3ccc(C(=O)N[C@@H](CCC(=O)O)C(=O)O)s3)cc2c(=O)[nH]1`: the pIC50 is 4.61.

Turning to `Cc1nc(O)c2cc(N(CCO)Cc3ccc(C(=O)N[C@@H](CCC(=O)O)C(=O)O)s3)ccc2n1`, the pIC50 is 4.88.

`Cc1nc(O)c2cc(CNc3ccc4c(c3)CN([C@@H](CCC(=O)O)C(=O)O)C4=O)ccc2n1` gave a pIC50 of 5.08.

Tested on in another assay: not listed separately
Put plainly: Ratio of IC50 of L1210:1565 cells to that of IC50 of L1210 cells.
Details: not given
Type of assay: functional.
As to `Cc1nc2ccc(CN(C)c3ccc(C(=O)N[C@@H](CCC(=O)O)C(=O)O)cc3)cc2c(=O)[nH]1`, the Ratio amounted to 38.

Turning to `Cc1nc(=O)c2cc(CN(C)c3ccc(C(=O)N[C@@H](CCC(=O)O)C(=O)O)s3)ccc2[nH]1` [RALTITREXED], the Ratio is given as 137.

Consider `Cc1nc(O)c2cc(N(C)Cc3ccc(C(=O)N[C@@H](CCC(=O)O)C(=O)O)cc3)ccc2n1`, for which the Ratio is 11.

For the compound `Cc1nc(O)c2cc(N(C)Cc3ccc(C(=O)N[C@@H](CCC(=O)O)C(=O)O)s3)ccc2n1`, the Ratio was found to be 7.
